Experimental data taken from patent US20230293519A1, “INTEGRIN INHIBITORS AND USES THEREOF IN COMBINATION WITH OTHER AGENTS” (Pliant Therapeutics, Inc., priority 2021, published 2023).

How the values were obtained:
[1] = tested on: Type I Collagen gene Col1a1 expression; test: Precision cut lung slices of mice under acute bleomycin exposure; assay type: cell-based, mouse
Experimental: Mice (C57BL/6) were administered 3 U/kg of bleomycin (Teva Pharmaceuticals; North Wales, PA) on day 0 via oropharyngeal aspiration while under anesthesia. On day 14, precision cut lung slices were obtained. Following euthanization, 2% low gelling temp agarose was injected into the mouse lungs via the trachea. […] The lobes were then subjected to precision slicing to obtain samples for culture using a microtome (Compresstome VF-300-0Z, Precisionary; Greenville, NC). Individual slices were distributed in a multiwell culture plate and cultured for 3 days under control (DMSO) and test compound conditions.

[2] = tested on: fibrosis-related gene expression in explanted human lung tissue from patients with idiopathic pulmonary fibrosis; test: nCounter Fibrosis Panel gene expression in precision cut lung slices from IPF explants; assay type: cell-based; details: IPF PCLS, 7 days, vs DMSO
Source text: Fibrosis-related gene expression in explanted human lung tissue from patients with idiopathic pulmonary fibrosis was examined in order to determine what impact combining Compound 5 treatment with standard-of-care drugs nintedanib or pirfenidone, has on the expression of such genes.
Samples used for this analysis are a subset (n = 4 of 7) of the lungs previously reported on in Decaris et al., Respir Res (2021) 22:265 (FIGS. 6 A and B). Briefly, tissue samples from patients with IPF were acquired at the time of lung transplantation. Precision cut lung slices were generated from the explants and cultured for 7 days in the presence of inhibitors (Compound 5, nintedanib, pirfenidone) at clinically relevant concentrations or vehicle (DMSO). Treated slices were lysed in mRNA-compatible buffer for gene expression analysis. For this study, the lysate from n = 6 slices per treatment per lung were pooled for analysis using the nCounter Fibrosis Panel (Nanostring) on the nCounter Max analyzer (Nanostring). This commercially available panel of 770 genes includes genes related to initial tissue damage response, chronic inflammation, proliferation of pro-fibrotic cells, and tissue modification leading to fibrotic disease. Technical quality control and normalization of raw Nanostring mRNA count data was performed using an R framework developed by Bhattacharya et al. (Bhattacharya A. et al., Brief Bioinform. 2021 May 20;22(3):bbaa163). The R packages limma (see URL www.bioconductor.org/packages/release/bioc/html/limma.html) and voom (Law, C.W. et al., Genome Biol. 2014 Feb 3;15(2):R29) were used to detect differentially expressed genes. Benjamini-Hochberg False Discovery Rate (FDR = 5%) was used to adjust p-values for multiple comparisons.

COL1A1 expression = test: PCLS from human IPF lung tissue, 7 days: COL1A1 expression; assay type: cell-based; details: Compound 5 200 nM, nintedanib 75 nM, pirfenidone 50 µM, 5-7 IPF lungs
Experimental: PCLS from 5-7 idopathic pulmonary fibrosis (IPF) lung tissue samples were cultured for seven days with one of: DMSO; Compound 5 at 200 nM; nintedanib at 75 nM; pirfenidone at 50 µm; a combination of Compound 5 at 200 nM and nintedanib at 75 nM; a combination of Compound 5 at 200 nM and pirfenidone at 50 µm; or an Alk5 inhibitor at 1 µm. […] FIG. 6D is a bar graph showing relative expression of COL1A1 in precision cut lung slices (PCLS) from idopathic pulmonary fibrosis (IPF) lung tissue upon exposure to Comopund 5, clinical standard of care compounds nintedanib (Nin) and pirfenidone (Pirf), and an ALK5 inhibitor, all versus DMSO control.
PCLS from a single IPF lung tissue sample were cultured for seven days with Compound 5 at concentrations of 200 pM, 2 nM, 60 nM, 200 nM, and 1 µM, along with 0.1% DMSO control and an Alk5 inhibitor at 1 µM. […] COL1A1 expression is also graphed for the PCLS in the presence of 0.1% DMSO control, and an Alk5 inhibitor at 1 µM.

lung Col1a1 expression = test: Precision cut lung slices of mice under chronic bleomycin exposure (vs pirfenidone and nintedanib); assay type: cell-based, mouse; details: slices cultured 7 days; nintedanib and pirfenidone at 10x therapeutic concentrations
Experimental: Mice (C57BL/6) were administered 3 U/kg of bleomycin (Teva Pharmaceuticals; North Wales, PA) on Day 0 and 1 U/kg of bleomycin on days 14, 28, 42 and 56 via oropharyngeal aspiration while under anesthesia. At day 70, 14 days following the final bleomycin insult, precision cut lung slices were obtained. Following euthanization, 2% low gelling temp agarose was injected into the mouse lungs via the trachea. […] The lobes were then subjected to precision slicing to obtain samples for culture using a microtome (Compresstome VF-300-0Z, Precisionary; Greenville, NC). Individual slices were distributed in a multiwell culture plate and cultured for 7 days under control (DMSO) and test compound conditions. The viability of the slices over the course of culturing was confirmed by WST-1 assay of mitochondrial activity.
During the culture period, slices in the control group were treated with DMSO and slices in the test group were treated with a DMSO solution of one of: compound 5; nintedanib; pirfenidone; a combination of nintedanib and compound 5; a combination of pirfenidone and compound 5; or the small molecule ALK5 inhibitor. Compound 5 was […] effective to equal or exceed its respective IC50 values at αvβ6 and αvβ1. The small molecule ALK5 inhibitor was analyzed at 10x its reported IC50 value. Nintendanib and pirfenidone were analyzed at concentrations 10x their reported therapeutic concentrations.

[3] = molecular target: recombinant human integrin αvβ6 (Homo sapiens (Human), UniProt P06756+P18564); test: Solid phase integrin αvβ6 binding assay; details: IC50 presented in four ranges; read-out: αvβ6 Inhibition IC50 (nM) - range
Sequence of recombinant human integrin αvβ6 (P06756 31-889): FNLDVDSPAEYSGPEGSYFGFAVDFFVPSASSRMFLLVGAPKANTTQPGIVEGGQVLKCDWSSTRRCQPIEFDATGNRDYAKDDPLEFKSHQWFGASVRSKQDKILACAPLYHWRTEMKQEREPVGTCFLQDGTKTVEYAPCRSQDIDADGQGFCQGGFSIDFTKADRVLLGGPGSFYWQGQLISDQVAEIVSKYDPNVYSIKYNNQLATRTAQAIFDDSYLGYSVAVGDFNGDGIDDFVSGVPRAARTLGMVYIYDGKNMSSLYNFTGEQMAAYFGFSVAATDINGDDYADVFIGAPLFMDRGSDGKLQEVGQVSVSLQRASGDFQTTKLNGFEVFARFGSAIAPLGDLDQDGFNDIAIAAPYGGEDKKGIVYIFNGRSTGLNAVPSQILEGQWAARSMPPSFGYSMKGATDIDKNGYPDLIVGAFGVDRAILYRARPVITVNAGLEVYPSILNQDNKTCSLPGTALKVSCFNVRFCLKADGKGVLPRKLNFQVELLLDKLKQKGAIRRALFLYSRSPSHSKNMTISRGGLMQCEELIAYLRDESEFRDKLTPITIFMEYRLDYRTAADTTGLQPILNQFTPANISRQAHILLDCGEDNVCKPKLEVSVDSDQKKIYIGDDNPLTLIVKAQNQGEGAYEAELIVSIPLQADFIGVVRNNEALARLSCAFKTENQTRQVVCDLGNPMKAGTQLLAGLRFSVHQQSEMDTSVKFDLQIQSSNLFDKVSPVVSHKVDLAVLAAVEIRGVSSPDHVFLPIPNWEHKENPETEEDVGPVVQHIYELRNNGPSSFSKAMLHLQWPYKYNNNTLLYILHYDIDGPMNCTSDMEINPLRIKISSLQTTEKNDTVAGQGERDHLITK
Sequence of recombinant human integrin αvβ6 (P06756 890-992 partner): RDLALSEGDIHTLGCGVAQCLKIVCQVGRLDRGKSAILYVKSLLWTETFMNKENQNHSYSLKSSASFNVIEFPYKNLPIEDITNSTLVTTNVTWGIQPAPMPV
Sequence of recombinant human integrin αvβ6 (P18564 22-707): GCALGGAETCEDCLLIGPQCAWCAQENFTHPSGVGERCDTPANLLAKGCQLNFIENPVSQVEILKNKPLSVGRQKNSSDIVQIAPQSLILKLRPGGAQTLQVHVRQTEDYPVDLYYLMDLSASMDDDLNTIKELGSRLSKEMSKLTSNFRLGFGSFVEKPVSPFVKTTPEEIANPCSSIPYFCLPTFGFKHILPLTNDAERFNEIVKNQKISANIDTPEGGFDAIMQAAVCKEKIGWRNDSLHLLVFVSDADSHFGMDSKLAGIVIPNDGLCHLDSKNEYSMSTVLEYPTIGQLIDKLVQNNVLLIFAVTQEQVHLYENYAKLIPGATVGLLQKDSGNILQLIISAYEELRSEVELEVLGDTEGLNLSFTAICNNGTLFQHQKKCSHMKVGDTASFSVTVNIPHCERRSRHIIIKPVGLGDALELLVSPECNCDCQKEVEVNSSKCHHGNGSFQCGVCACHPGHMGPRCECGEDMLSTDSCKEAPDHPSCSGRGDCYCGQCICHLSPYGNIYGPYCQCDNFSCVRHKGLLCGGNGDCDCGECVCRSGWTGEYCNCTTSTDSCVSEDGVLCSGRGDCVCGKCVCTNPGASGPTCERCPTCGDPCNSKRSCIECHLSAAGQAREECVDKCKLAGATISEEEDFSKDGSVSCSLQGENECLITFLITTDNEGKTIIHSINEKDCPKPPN
Experimental: (§1) Microplates were coated with recombinant human integrin αvβ6 (2 µg/mL) in PBS (100 µL/well 25° C., overnight). The coating solution was removed, washed with wash buffer (0.05% Tween 20; 0.5 mM MnCl2; in 1x TBS). The plate was blocked with 200 µL/well of Block Buffer (1% BSA; 5% sucrose; 0.5 mM MnCl2; in 1x TBS) at 37° C. for 2 h. Dilutions of testing compounds and recombinant TGFβ1 LAP (0.67 µg/mL) in binding buffer (0.05% BSA; 2.5% sucrose; 0.5 mM MnCl2; in 1x TBS) were added. The plate was incubated for 2 hours at 25° C., washed, and incubated for 1 hour with Biotin-Anti-hLAP. Bound antibody was detected by peroxidase-conjugated streptavidin. The IC50 values for testing compounds were calculated by a four-parameter logistic regression.
The compounds tested were compound samples prepared according to procedures described in the Synthetic Examples section, with the stereochemical purity as indicated in the Examples.
as §1, with “A third series of exemplary compounds was selected for testing in the solid phase integrin αvβ6 binding assay. The compounds tested were compound samples prepared according to procedures described in the Synthetic Examples section, with the stereochemical purity as indicated in the Examples. As in Example B1, microplates” for “Microplates”

Cc1ccc(=O)n(-c2ccccc2)c1 [pirfenidone, 5-methyl-1phenyl-2-1(H)-pyridone]
fold increase in concentration over compound 5 needed to reduce lung slice Col1a1 expression by 50% ([1]; acute bleomycin injured lung slices): 3,940 fold | % Reduction of CDH2 expression [2]: -7.12% | % Reduction of COL1A1 expression [2]: 8.58% | % Reduction of COL5A3 expression [2]: 23.95% | % Reduction of ITGAS expression [2]: 26.21% | % Reduction of THBS2 expression [2]: 21.20% | logFC of ACACA expression [2]: 0.4392 | logFC of ACVRL1 expression [2]: -0.7278 | logFC of ALDH7A1 expression [2]: 0.6119 | logFC of C6 expression [2]: 1.475 | logFC of CD34 expression [2]: -0.8356 | logFC of CDH5 expression [2]: -1.0568 | logFC of CFTR expression [2]: 1.189 | logFC of COL4A1 expression [2]: -0.7024 | logFC of COL7A1 expression [2]: 0.6703 | logFC of COL14A1 expression [2]: -0.7785 | logFC of COX4I2 expression [2]: -0.7471 | logFC of CXCL2 expression [2]: 0.778 | logFC of CXCL12 expression [2]: -0.5918 | logFC of CXCR4 expression [2]: -0.8852 | logFC of EGFR expression [2]: 0.4764 | logFC of F11R expression [2]: 0.5803 | logFC of FGF19 expression [2]: -1.14 | logFC of GAS1 expression [2]: -0.6419 | logFC of GPC4 expression [2]: 0.4613 | logFC of GREM1 expression [2]: -0.7447 | logFC of HADH expression [2]: 0.4377 | logFC of HAVCR1 expression [2]: -0.7313 | logFC of ICAM1 expression [2]: 0.4322 | logFC of IFNG expression [2]: -0.5853 | logFC of KLF5 expression [2]: 0.7343 | logFC of KNG1 expression [2]: -1.1 | logFC of LYN expression [2]: 0.4785 | logFC of MET expression [2]: 1.096 | logFC of MMP7 expression [2]: 1.413 | logFC of MMRN1 expression [2]: -0.9784 | logFC of NOTCH4 expression [2]: -0.7164 | logFC of OCLN expression [2]: 0.5956 | logFC of PDGFRB expression [2]: -0.7514 | logFC of PECAM1 expression [2]: -0.9354 | logFC of PSENEN expression [2]: 0.4784 | logFC of PTGS2 expression [2]: 0.9466 | logFC of RELN expression [2]: -0.8283 | logFC of SAA1 expression [2]: 1.653 | logFC of TEK expression [2]: -0.8124 | logFC of WWC1 expression [2]: 0.8127 | reduction of COL1A1 expression (COL1A1 expression): did not significantly reduce | lung Col1a1 expression vs DMSO control (lung Col1a1 expression): slight increase

CC(C)(C)c1cc(Br)cc(C(CC(=O)O)NC(=O)CNC(=O)c2cc(O)cc(NC3=NCC(O)CN3)c2)c1 [second pan-αv small molecule inhibitor, (3S)-N-[3-hydroxy-5-[(1,4,5,6-tetrahydro-5-hydroxy-2-pyrimidinyl)amino]benzoyl]glycyl-3-[3-bromo-5-(1,1-dimethylethyl)phenyl]-(3-alanine]
Type I Collagen gene Col1a1 expression vs DMSO control ([1]; slices cultured 3 days, integrin inhibitors at IC50, pan-αv and ALK5 inhibitors at 10x IC50): reduced

CS(=O)(=O)CCN(CCCCc1ccc2c(n1)NCCC2)CC[C@H](Nc1ccnc(C(F)(F)F)n1)C(=O)O [compound 104]
IC50 [3]: > 1000 nM

COCCN(CCCCc1ccc2c(n1)NCCC2)CC[C@H](Nc1ncnc2cc(F)ccc12)C(=O)O [compound 7]
IC50 [3]: < 50 nM

CO[C@H](C)CN(CCCCc1ccc2c(n1)NCCC2)CC[C@H](Nc1ncncc1-c1ccccc1)C(=O)O [compound 81]
IC50 [3]: < 50 nM

O=C(O)[C@H](CCN(CCCCc1ccc2c(n1)NCCC2)C1CC1)Nc1ncc(C(F)(F)F)cn1 [compound 114]
IC50 [3]: < 50 nM

O=C(O)[C@H](CCN(CCCCc1ccc2c(n1)NCCC2)CC(F)F)Nc1ncnc2[nH]ncc12 [compound 112]
IC50 [3]: 250 to 1000 nM

O=C(O)[C@H](CCN(CCCCc1ccc2c(n1)NCCC2)CCOc1ccccn1)Nc1ncnc2ccccc12 [compound 49]
IC50 [3]: < 50 nM

O=C(O)[C@H](CCN(CCCF)CCCCc1ccc2c(n1)NCCC2)Nc1ncc(C(F)(F)F)cn1 [compound 137]
IC50 [3]: < 50 nM

O=C(O)[C@H](CCN(CCCCc1ccc2c(n1)NCCC2)CC1(F)COC1)Nc1ncnc2ccccc12 [compound 147]
IC50 [3]: 50 to 250 nM

COCCN(CCCCc1ccc2c(n1)NCCC2)CC[C@H](Nc1ncnc2c(C(F)(F)F)cccc12)C(=O)O [compound 15]
IC50 [3]: < 50 nM

CO[C@H](C)CN(CCCCc1ccc2c(n1)NCCC2)CC[C@H](Nc1ncc(C#N)cn1)C(=O)O [compound 84]
IC50 [3]: 250 to 1000 nM
